The source of these data is patent US11976068B2 (CHIMERIX, INC., priority 2015, dated 2024).

Structures are written as SMILES.

In data set [1] the test system is 1020 genetically annotated cell lines. Nature of the data set: Tumor type in vitro sensitivity, GDSC cell lines, cell viability at 72 hours. The class given is cell-based. To be noted: tertile of average IC50. The text has this: The estimated IC50 values were averaged across multiple cell lines for each tumor type. Tumor types were categorized into three different groups that represented tertiles of average IC50 values.

Data set [2] concerns cleaved cytokeratin 18 (cCK18). Nature of the data set: Phase I trial, serum M30 assay. In kind it is in vivo, human. How it is done:
Serum levels of cleaved cytokeratin 18 (cCK18) were assessed using the M30 assay and serum levels of total cytokeratin 18 (CK18) were assessed using the M65 assay (Perviva A.B., Sweden). Assessments of other tumor-specific markers were also evaluated per standard of care.
Given the heterogeneity of the tumor types in the enrolled patients, no widely used biomarker was available to uniformly assay all patient samples. In particular, the serum M30 assay is able to detect a caspase-cleaved form of cytokeratin-18 that occurs during apoptosis, which is useful in a heterogeneous study of solid tumors because most solid tumors express cytokeratin-18. The M30 sandwich ELISA has been used extensively in clinical trials as biomarkers of cell death induced by a variety of different cancer chemotherapeutic agents in a spectrum of different solid tumors. In addition to the serum M30 assay, the M65 sandwich ELISA assay, which has also been used in clinical studies to detect increases in total cytokeratin 18 that can occur with tumor necrosis and disease progression, was used to differentiate tumor apoptosis from necrosis.

The subject of data set [3] is human foreskin fibroblasts (HFF), human fetal lung fibroblast (MRC-5) cells, human lung fibroblast cell line (WI-38). The note with it: 72 hours.

In the case of `Cc1ccccc1CN1C(=O)C2=C(CCN(Cc3ccccc3)C2)N2CCN=C12` [ONC201, 7-benzyl-4-(2-methylbenzyl)-2,4,6,7,8,9-hexahydroimidazo [1,2-a]pyrido[3,4-e]pyrimidin-5(1H)-one], the “Tumor Type In Vitro Sensitivity” value is reported as “Low” in data set [1] (tumor type Breast cancer); “High” in data set [1] (tumor type Colon adenocarcinoma); “Med” in data set [1] (tumor type NSCLC); “Med” in data set [1] (tumor type Ovarian); “High” in data set [1] (tumor type Prostate adenocarcinoma); “Med” in data set [1] (tumor type Renal cancer). Further, the “Tumor Type In Vitro Sensitivity” value is given as “High” in data set [1] (tumor type Small cell lung cancer), “Low” in data set [1] (tumor type Spindle cell sarcoma) and “Med” in data set [1] (tumor type Uterine cancer). In addition, the “M30 Induction (>50%)” value in data set [2] (Pat # 1, NSCLC, 125 mg) is listed as “No”; in data set [2] (Pat # 2, Appendiceal cancer, 250 mg) it was “No”; in data set [2] (Pat # 3, Uterine cancer, 375 mg), “Yes”; in data set [2] (Pat # 4, Renal cancer, 500 mg) it was “No”; in data set [2] (Pat # 5, Breast cancer, 625 mg) it was “Yes”; in data set [2] (Pat # 6, Prostate adenocarcinoma, 625 mg), “Yes”. In addition, the “M30 Induction (>50%)” value in data set [2] (Pat # 7, Small cell lung cancer, 625 mg) is “Yes”; in data set [2] (Pat # 8, Colon adenocarcinoma, 625 mg) it was “Yes”; in data set [2] (Pat # 9, Spindle cell sarcoma, 625 mg), “No”; in data set [2] (Pat # 10, Ovarian, 625 mg), “No”. The “number of patients with induction in the M30 assay” value in data set [2] (dose escalation phase, after a single dose, most often on day 21 post-treatment) was “Four”. Moreover, the “cell viability of normal cells” value in data set [3] (about 1-5 mg/mL compound (1)) is reported as “at least 75%”. Moreover, the “viability of normal cells” value in data set [3] (beyond about 5 mg/mL compound (1)) was “about 75%”.
